# Measured values reported in patent US9855203B2, “Preserving personal care compositions” (The Procter & Gamble Company, priority 2013, dated 2018).
# Test: Log water solubility of preservatives
# Conditions: logarithm base 10 of molar solubility at 25° C.; from experimental solubility or Chemsilico CS log WSo-3.0
row,Log (water Solubility in mol/L),SMILES
1,−0.47 mol/L,OCc1ccccc1 [benzyl Alcohol]
2,−1.91 mol/L,CCOC(=O)c1ccc(O)cc1 [ethyl paraben]
3,−1.41 mol/L,O=C(O)c1ccccc1O [Salicylic acid]
4,−3.15 mol/L,C=CCCCCCCCCC(=O)O [Undecylenic Acid]
5,−0.83 mol/L,OCCc1ccccc1 [phenethyl alcohol]
6,−3.08 mol/L,CCCCCCC(O)CO (stereo not shown) [caprylyl glycol]
7,−0.33 mol/L,C/C=C/C=C/C(=O)O [sorbic acid]
